For series [1], the target named is α7-nAChR (Mus musculus, UniProt P49582). It is filed as in vivo, CD1 mice. The note with it: 90 min post-tracer.
In another series the target is α7-nAChRs. As to conditions: read-out: equilibrium dissociation constant KD; rat; cited from earlier work.
Series [2] has as its target α7-nAChR. The note with it: rat hippocampus or human α7-nAChR recombinant membranes; cited from earlier work.
Series [3] has as its system α7-nAChR. The note with it: baboon brain, prior studies of the authors; cited from earlier work.
Series [4] has as its system α7-nAChR. As to conditions: mouse brain, prior studies of the authors; cited from earlier work.
The test system of series [5] is α7-nAChR. As to conditions: monkey PET, injection of SSR180711; cited from earlier work.
For series [6], the target named is T1, α7-nAChR (Homo sapiens, UniProt P36544). The note with it: single human PET experiment; cited from earlier work.
Series [7] is described as follows: [^18F]ASEM metabolite analysis in human plasma. As to conditions: for parent [^18F]ASEM metabolized: human plasma. Type of series: in vivo.
Series [8] deals with T1, α7-nAChR. In words: Human PET brain imaging with [^18F]ASEM. Type of series: in vivo.

Like-named read-outs stand apart in the source and are kept apart here.

T1 sequence (P36544 23-502): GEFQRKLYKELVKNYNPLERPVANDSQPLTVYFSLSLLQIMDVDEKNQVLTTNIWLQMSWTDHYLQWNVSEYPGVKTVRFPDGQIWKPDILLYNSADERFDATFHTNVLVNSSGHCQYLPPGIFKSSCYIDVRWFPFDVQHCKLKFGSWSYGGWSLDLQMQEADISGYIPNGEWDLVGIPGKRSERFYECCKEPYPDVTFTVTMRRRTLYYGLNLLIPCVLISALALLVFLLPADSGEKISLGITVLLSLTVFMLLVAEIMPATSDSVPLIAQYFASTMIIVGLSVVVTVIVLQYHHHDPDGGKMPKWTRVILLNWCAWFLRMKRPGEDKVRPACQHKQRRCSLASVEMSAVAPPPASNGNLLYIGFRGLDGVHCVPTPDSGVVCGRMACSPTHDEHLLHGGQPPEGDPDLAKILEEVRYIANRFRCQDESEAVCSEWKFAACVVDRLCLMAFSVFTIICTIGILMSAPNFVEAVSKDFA
α7-nAChR (Mus musculus, UniProt P49582), sequence (P49582 23-502): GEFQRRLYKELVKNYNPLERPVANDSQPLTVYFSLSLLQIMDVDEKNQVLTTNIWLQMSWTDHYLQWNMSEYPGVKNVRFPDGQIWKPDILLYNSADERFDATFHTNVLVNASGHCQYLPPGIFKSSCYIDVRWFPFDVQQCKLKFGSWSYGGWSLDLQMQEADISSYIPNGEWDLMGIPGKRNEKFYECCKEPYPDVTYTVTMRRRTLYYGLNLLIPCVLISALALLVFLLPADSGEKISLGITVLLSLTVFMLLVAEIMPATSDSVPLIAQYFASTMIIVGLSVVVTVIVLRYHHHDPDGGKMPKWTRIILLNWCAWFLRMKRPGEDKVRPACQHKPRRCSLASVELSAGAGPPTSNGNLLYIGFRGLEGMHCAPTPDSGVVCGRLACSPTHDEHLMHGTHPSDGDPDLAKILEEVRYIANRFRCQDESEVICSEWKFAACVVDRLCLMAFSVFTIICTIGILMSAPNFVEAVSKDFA

Regarding `COc1ccc(/C=C2\CCCN=C2c2cccnc2)c(OC)c1` [DMXB-A, Dimethoxybenzylidene anabaseine], the “blockade of [^18F]ASEM binding” value on α7-nAChR [1] (3 mg/kg IP, hippocampus, p<0.05) is recorded as 28%; at α7-nAChR [1] (10 mg/kg IP, hippocampus, cortex, subcolliculus, p<0.01), 50–70%; at α7-nAChR [1] (0.1, 0.3 and 1 mg/kg IP) it was “did not show significant blockade”.
Consider `Cc1ccc(OC(=O)N2CCN3CCC2CC3)cc1` [[^3H]CHIBA-1001], for which the values for the Kd at α7-nAChRs and on α7-nAChR [2] were 193 nM and 120 to 180 nM, respectively.
Take `O=C(Oc1ccc(Br)cc1)N1CCN2CCC1CC2` [SSR180711]: the “blockade of [^18F]ASEM binding” value with α7-nAChR [3] and with α7-nAChR [4] was “successfully blocked” in each case. In addition, the “reduction of [^11C]CHIBA-1001 radioactivity in the high uptake regions” value in the series with α7-nAChR [5] was 25–30%.
`[11CH3]c1ccc(OC(=O)N2CCN3CCC2CC3)cc1` [[^11C]CHIBA-1001]: on α7-nAChR [6], the “target-to-non-target ratios in the brain regions” value is less than 1.3.
Turning to `O=S1(=O)c2cc(N3CCN4CCC3CC4)ccc2-c2cccc([18F])c21` [[^18F]ASEM, 3-(1,4-diazabicyclo[3.2.2]nonan-4-yl)-6-[^18F]fluorodibenzo[b,d]thiophene 5,5-dioxide], the “time of plasma TAC peak” value in [7] (human arterial plasma) was not above 1 min. For the same compound, the “parent [^18F]ASEM metabolized” value in [7] (30 min post-injection) is 52.6±12.9%; in [7] (90 min post-injection), 83.5±9.7%. Also, the “distribution volume VT, lower-binding regions” value on α7-nAChR [8] (entorhinal cortex, cerebellum, caudate, corpus callosum, PRGA) is on record as less than 15 ml/ml. In addition, the “time of peak brain uptake post-injection” value on α7-nAChR [8] (human brain, after IV bolus injection) is recorded as 15 min. For the same compound, on α7-nAChR [8] (medium and high VT regions, two subjects, two scans separated by a few days), the “test-retest variability (TRV) of VT” value is 10.8±5.1%.

The record behind these values is paper PMC5344036 (Molecular imaging and biology : MIB : the official …, 2014).
